This is an account of results in EP1092427B1, “Use of a peptide avoiding skin intolerance reactions, especially in cosmetic compositions” (L'ORÉAL, priority 1999, dated 2007).

For test [1], the system named is souris femelles Balb/C. The experiment in a line: TNCB contact hypersensitivity in mice, peptide injected intravenously before sensitisation (ear swelling). It counts as in vivo. How it is done:
(§1) L'étude est effectuée sur des souris femelles Balb/C âgées de 7 à 10 semaines.
On injecte une dose de 1,5 µg du peptide étudié (en solution dans du tampon PBS contenant 0,1 % de sérum de souris) dans une veine de la queue des souris 2 heures avant la réaction de sensibilisation.
(§2) La réaction de sensibilisation consiste à appliquer au pinceau 100 µl d'une solution à 0,15 % de TNCB dans un mélange acétone-huile d'olive (4:1) sur la peau rasée de l'abdomen des souris.
(§3) La réaction déclenchante est réalisée 7 jours après la réaction de sensibilisation. Cette réaction déclenchante consiste à appliquer sur les deux faces d'une oreille 10 microlitres d'une solution à 0,8 % de TNCB dans un véhicule constitué par le mélange acétone-huile d'olive déjà mentionné ci-dessus.
(§4) Sur l'autre oreille, on applique, pour comparaison, uniquement ce mélange d'acétone et d'huile d'olive.
(§5) On évalue l'intensité d'une éventuelle réaction d'hypersensibilité de contact par estimation de l'importance de l'oedème de l'oreille traitée par le TNCB, en comparaison avec l'oreille traitée par le seul véhicule. Pour cela, on mesure et compare l'épaisseur des oreilles à l'aide d'une vis micrométrique. Cette mesure est effectuée 24 heures après la réaction déclenchante.
On applique également le TNCB sur l'oreille de souris témoins n'ayant pas été préalablement sensibilisée (témoins négatifs). […]

The subject of test [2] is patients volontaires. The experiment in a line: Topical effect in human volunteers with nickel contact allergy (nickel sulfate patch test). It counts as in vivo, homme. The conditions noted are these: out of 14 nickel-sensitised persons; cream with 100 µM peptide under occlusive dressing on back skin 2 h before 5 % nickel sulfate patch; read 24 h later. How it is done: Cette étude a été effectuée sur des patients volontaires âgés de 18 à 65 ans, chez lesquels une allergie de contact au nickel était suspectée. Ces patients étaient exempts d'autres maladies cutanées, et les résultats de cette étude montrent qu'ils n'avaient pas d'allergie aux constituants de la crème utilisée comme véhicule.
Au jour 0, on applique avec un pansement occlusif, sur des zones de la peau du dos, d'une part une crème contenant 100 µM du peptide de formule II, et d'autre part la crème seule, sans peptide, utilisée comme placebo.
Deux heures plus tard, on applique sur les mêmes zones de la peau, et aussi sur une zone adjacente non prétraitée, des patchs imprégnés de vaseline contenant du sulfate de nickel à une concentration de 5 %.
24 heures plus tard, on examine les patients. Ceux qui ont développé une réaction d'hypersensibilité de contact sur la zone traitée par le placebo (et aussi sur la zone adjacente n'ayant reçu que l'application de sel de nickel), et qui sont donc des personnes qui étaient déjà sensibilisées au nickel, sont au nombre de 14. Sur ces 14 personnes, 7 n'ont développé aucune réaction d'hypersensibilité de contact sur la zone traitée par le peptide.

Test [3] concerns souris femelles Balb/C. The test can be described thus: TNCB contact hypersensitivity in mice, peptide applied topically in a water-in-oil cream (ear swelling). As to conditions: peptide in water-in-oil cream applied on the zone to be sensitised 2 h before sensitisation; measured 24 h after challenge; positive controls 7×10^-2 mm. It counts as in vivo. How it is done: as §1, §2, §3, §4, §5
On opère comme en a) ci-dessus, mais le peptide, incorporé dans une crème de type eau-dans-l'huile, est appliqué sur la zone à sensibiliser 2 heures avant la sensibilisation.

For test [4], the system named is souris femelles Balb/C. The experiment in a line: TNCB contact hypersensitivity in mice after a second sensitisation (tolerance test, ear swelling). Type of test: in vivo. An excerpt:
14 jours après la fin de l'expérience décrite en a) ci-dessus, on soumet les mêmes souris à une nouvelle réaction de sensibilisation sur la peau rasée du dos, comme décrit en a).
7 jours plus tard, on effectue le test de déclenchement par application du TNCB sur l'oreille, et 24 heures plus tard, on mesure le degré de gonflement de l'oreille.
Cette seconde expérience a pour but de faire une distinction entre une éventuelle immunosuppression temporaire aspécifique et une tolérance immunologique spécifique.

SMILES strings stand for the structures. Non-standard residues stand in square brackets, D forms with d. Residues, ends and D or L forms follow the SMILES beside them.

Turning to `CC(=O)N[C@H](CCCCN)C(=O)N1CCC[C@@H]1C(=O)N[C@@H](C(N)=O)C(C)C` [peptide de formule II, Ac-D-Lys-D-Pro-D-Val-NH2] (Ac-[dK]-[dP]-[dV]-NH2), in test [1] (1,5 µg peptide i.v. 2 h before TNCB sensitisation), the “réaction d'hypersensibilité de contact (result in words)” value was “réduit fortement la réaction d'hypersensibilité de contact”. Moreover, the “augmentation de l'épaisseur de l'oreille” value is given as ~2,5×10^-2 mm in test [1] (1,5 µg peptide i.v. (tail vein) 2 h before sensitisation with 0,15 % TNCB, challenge day 7 with 0,8 % TNCB on ear, measured 24 h after challenge, ^-2 mm, negative controls about 1×10^-2 mm) and 3×10^-2 mm in test [3]. In addition, the “personnes n'ayant développé aucune réaction d'hypersensibilité de contact sur la zone traitée par le peptide” value in test [2] is 7. Moreover, the “hypersensibilité de contact après une seconde dose sensibilisante de TNCB (result in words)” value in test [4] (mice treated with peptide before the first sensitisation only) is “n'ont pas développé une hypersensibilité de contact”. The “degré de gonflement de l'oreille” value in test [4] (same mice re-sensitised with TNCB on the back 14 days after first experiment, no new peptide dose, challenge 7 days later, measured 24 h later, positive controls about 14×10^-2 mm, negative controls about 3,5×10^-2 mm) is on record as ~3,5×10^-2 mm.
